Activity calls are given as the source filed them. The rule behind the calls is not given here.
Legend:
[1] = target: T1, [Pyruvate dehydrogenase (acetyl-transferring)] kinase isozyme 1, mitochondrial (Homo sapiens, UniProt Q15118); assay: Inhibition of PDK1 in human A549 cells assessed as reduction in phosphorylation of PDHE1 at S232 residue at 10 uM after 24 hrs by chemiluminescence/femtochemiluminescence method; assay type: cell-based
[2] = target: T1, [Pyruvate dehydrogenase (acetyl-transferring)] kinase isozyme 1, mitochondrial; assay: Inhibition of PDK1 in human A549 cells assessed as increase in reactive oxygen species after 24 hrs by dihydroethidium staining based FACS analysis; assay type: cell-based
[3] = target: T1, [Pyruvate dehydrogenase (acetyl-transferring)] kinase isozyme 1, mitochondrial; assay: Inhibition of PDK1 in human A549 cells assessed as reduction in phosphorylation of PDHE1 at S293 residue after 24 hrs by chemiluminescence/femtochemiluminescence method; assay type: cell-based
[4] = target: T1, [Pyruvate dehydrogenase (acetyl-transferring)] kinase isozyme 1, mitochondrial; assay: Inhibition of PDK1 in human A549 cells assessed as reduction in phosphorylation of PDHE1 at S232 residue at 1 uM after 24 hrs by chemiluminescence/femtochemiluminescence method; assay type: cell-based
[5] = system: A549; assay: Antitumor activity against human A549 cells xenografted in BALB/c nude mouse assessed as tumor growth inhibition at 80 mg/kg, ip for 21 days measured on day 21 post dose relative to control; assay type: functional; details: 504 h, read-out: TGI
[6] = Antiproliferative activity against human GM00637 cells after 72 hrs by CCK8 assay; assay type: cell-based; details: GM00637, 72 h
[7] = target: T1, [Pyruvate dehydrogenase (acetyl-transferring)] kinase isozyme 1, mitochondrial; assay: Inhibition of PDK1 in human A549 cells assessed as reduction in phosphorylation of PDHE1 at S293 residue at 1 uM after 24 hrs by chemiluminescence/femtochemiluminescence method; assay type: cell-based
[8] = target: T1, [Pyruvate dehydrogenase (acetyl-transferring)] kinase isozyme 1, mitochondrial; assay: Inhibition of full length His6-tagged PDK1 (unknown origin) expressed in Escherichia coli using full length His6-tagged PDHA1 as substrate after 30 mins by ELISA
[9] = target: T1, [Pyruvate dehydrogenase (acetyl-transferring)] kinase isozyme 1, mitochondrial; assay: Inhibition of PDK1 in human A549 cells assessed as reduction in extracellular acidification rate after 24 hrs by fluorescent biosensor based assay; assay type: cell-based
[10] = system: A549; assay: cells; details: Homo sapiens, A549, 72 h
Description: Antiproliferative activity against human A549 cells after 72 hrs by CCK8 assay

[11] = target: [Pyruvate dehydrogenase (acetyl-transferring)] kinase isozyme 2, mitochondrial (Homo sapiens, UniProt Q15119); assay: Inhibition of PDK2 (unknown origin) using full length His6-tagged PDHA1 as substrate after 30 mins by ELISA
[12] = target: T2, [Pyruvate dehydrogenase (acetyl-transferring)] kinase isozyme 4, mitochondrial (Homo sapiens, UniProt Q16654); assay: Inhibition of PDK4 (unknown origin) at 10 uM using full length His6-tagged PDHA1 as substrate after 30 mins by ELISA
Target sequence in this assay (Q16654 whole entry, looked up): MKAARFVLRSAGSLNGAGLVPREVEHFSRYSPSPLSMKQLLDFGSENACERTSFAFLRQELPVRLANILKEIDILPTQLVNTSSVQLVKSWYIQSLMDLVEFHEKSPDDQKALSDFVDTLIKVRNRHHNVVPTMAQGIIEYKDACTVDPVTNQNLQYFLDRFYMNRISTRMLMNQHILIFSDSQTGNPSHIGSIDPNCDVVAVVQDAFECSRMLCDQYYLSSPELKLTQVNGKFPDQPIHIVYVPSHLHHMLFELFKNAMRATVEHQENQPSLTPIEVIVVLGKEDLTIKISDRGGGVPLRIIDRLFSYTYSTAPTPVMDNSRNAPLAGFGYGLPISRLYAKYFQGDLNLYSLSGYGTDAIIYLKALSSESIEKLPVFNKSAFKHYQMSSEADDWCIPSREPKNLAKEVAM

[13] = Antiproliferative activity against human Kelly cells after 72 hrs by CCK8 assay
[14] = system: A549; assay: Antitumor activity against human A549 cells xenografted in BALB/c nude mouse assessed as tumor growth inhibition at 40 mg/kg, ip for 21 days measured on day 21 post dose relative to control; assay type: functional; details: 504 h, read-out: TGI
[15] = target: T1, [Pyruvate dehydrogenase (acetyl-transferring)] kinase isozyme 1, mitochondrial; assay: Inhibition of full length His6-tagged PDK1 (unknown origin) expressed in Escherichia coli using full length His6-tagged PDHA1 as substrate in presence of GSH after 30 mins by ELISA
[16] = target: T1, [Pyruvate dehydrogenase (acetyl-transferring)] kinase isozyme 1, mitochondrial; assay: Inhibition of PDK1 in human A549 cells assessed as reduction in phosphorylation of PDHE1 at S232 residue after 24 hrs by chemiluminescence/femtochemiluminescence method; assay type: cell-based
[17] = system: L02; assay: Antiproliferative activity against human LO2 cells after 72 hrs by CCK8 assay; assay type: cell-based; details: L02, 72 h
[18] = target: [Pyruvate dehydrogenase (acetyl-transferring)] kinase isozyme 3, mitochondrial (Homo sapiens, UniProt Q15120); assay: Inhibition of PDK3 (unknown origin) using full length His6-tagged PDHA1 as substrate after 30 mins by ELISA
[19] = target: T1, [Pyruvate dehydrogenase (acetyl-transferring)] kinase isozyme 1, mitochondrial; assay: Inhibition of PDK1 in human A549 cells assessed as reduction in phosphorylation of PDHE1 at S293 residue at 10 uM after 24 hrs by chemiluminescence/femtochemiluminescence method; assay type: cell-based
[20] = target: T1, [Pyruvate dehydrogenase (acetyl-transferring)] kinase isozyme 1, mitochondrial; assay: Ratio of Kinact to Ki for full length His6-tagged PDK1 (unknown origin) expressed in Escherichia coli
[21] = target: T1, [Pyruvate dehydrogenase (acetyl-transferring)] kinase isozyme 1, mitochondrial; assay: Inhibition of full length His6-tagged PDK1 (unknown origin) expressed in Escherichia coli assessed as inactivation rate using full length His6-tagged PDHA1 as substrate up to 45 mins by ELISA
[22] = target: T2, [Pyruvate dehydrogenase (acetyl-transferring)] kinase isozyme 4, mitochondrial; assay: Inhibition of PDK4 (unknown origin) using full length His6-tagged PDHA1 as substrate after 30 mins by ELISA
Target sequence in this assay (Q16654 whole entry): as the sequence (Q16654 whole entry, looked up) above

[23] = target: T1, [Pyruvate dehydrogenase (acetyl-transferring)] kinase isozyme 1, mitochondrial; assay: Inhibition of full length His6-tagged PDK1 (unknown origin) expressed in Escherichia coli up to 10 uM using full length His6-tagged PDHA1 as substrate after 30 mins by ELISA

T1 sequence (Q15118 whole entry): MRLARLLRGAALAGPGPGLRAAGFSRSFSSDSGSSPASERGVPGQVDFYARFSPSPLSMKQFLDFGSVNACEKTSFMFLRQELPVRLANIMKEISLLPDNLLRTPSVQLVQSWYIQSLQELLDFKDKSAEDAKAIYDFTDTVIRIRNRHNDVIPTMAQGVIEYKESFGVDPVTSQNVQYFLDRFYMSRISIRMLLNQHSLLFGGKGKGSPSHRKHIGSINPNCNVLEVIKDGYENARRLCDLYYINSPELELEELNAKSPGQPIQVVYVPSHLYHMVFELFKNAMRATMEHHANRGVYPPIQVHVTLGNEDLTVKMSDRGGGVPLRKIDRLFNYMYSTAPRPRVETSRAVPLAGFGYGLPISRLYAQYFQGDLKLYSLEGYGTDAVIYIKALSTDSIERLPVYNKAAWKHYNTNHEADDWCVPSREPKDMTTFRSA
[Pyruvate dehydrogenase (acetyl-transferring)] kinase isozyme 3, mitochondrial, sequence (Q15120 whole entry): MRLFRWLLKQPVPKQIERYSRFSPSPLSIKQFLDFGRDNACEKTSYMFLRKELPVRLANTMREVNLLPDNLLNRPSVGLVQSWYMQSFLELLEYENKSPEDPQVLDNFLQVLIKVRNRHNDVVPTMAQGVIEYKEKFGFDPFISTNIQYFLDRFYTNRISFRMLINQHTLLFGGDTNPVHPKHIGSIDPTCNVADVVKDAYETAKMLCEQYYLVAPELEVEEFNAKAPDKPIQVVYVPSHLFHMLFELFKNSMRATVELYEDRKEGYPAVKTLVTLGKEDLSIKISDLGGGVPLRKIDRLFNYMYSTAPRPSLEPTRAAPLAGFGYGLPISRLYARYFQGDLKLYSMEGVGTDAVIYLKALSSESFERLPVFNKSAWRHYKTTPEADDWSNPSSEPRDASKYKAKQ

COC[C@@H]1COCCN1C(=S)SSC(=S)N1CCOC[C@H]1COC
inhibition [1]: Active | inhibition [2]: Dose-dependent effect | inhibition [3]: Dose-dependent effect | inhibition [4]: Active | inhibition in vivo at 80 mg/kg [5]: 20% | IC50 [6]: > 10 µM | inhibition [7]: Active | IC50 [8]: 0.024 µM | Ki [8]: 0.11 µM | inhibition [9]: Dose-dependent effect | IC50 [10]: 0.957 µM | Ki [11]: 0.702 µM | inhibition [12]: inactive | IC50 [13]: 1.43 µM | inhibition in vivo at 40 mg/kg [14]: 11% | inhibition [15]: inactive | inhibition [16]: Dose-dependent effect | IC50 [17]: > 10 µM | Ki [18]: 2.99 µM | inhibition [19]: Active

CC1CCc2nc(SSc3nc4c(s3)CC(C)CC4)sc2C1 (configuration not stated)
IC50 [8]: 0.119 µM

C1Cc2nc(SSc3nc4c(s3)CCC4)sc2C1
IC50 [8]: 0.139 µM

OC1CN(C(=S)SSC(=S)N2CC(O)C2)C1
IC50 [8]: 0.395 µM | Ki [8]: 0.872 µM | Ratio [20]: 0.07 ×10³ /M/s | Kinact [21]: 4.74 ×10⁻⁴ /s

S=C(SSC(=S)N1CCOC(COc2cccc3ccccc23)C1)N1CCOC(COc2cccc3ccccc23)C1 (configuration not stated)
IC50 [8]: 3.87 µM | Ki [8]: 22.6 µM | Ratio [20]: 0.03 ×10³ /M/s | Kinact [21]: 6.9 ×10⁻⁴ /s

CC1(C)CCc2nc(SSc3nc4c(s3)CC(C)(C)CC4)sc2C1
IC50 [8]: 0.218 µM

CN(C)C(=O)OCC1CN(C(=S)SSC(=S)N2CCOC(COC(=O)N(C)C)C2)CCO1 (configuration not stated)
IC50 [8]: 1.7 µM

CCCCCCCCCCOCC1CN(C(=S)SSC(=S)N2CCCOC(COCCCCCCCCCC)C2)CCCO1 (configuration not stated)
IC50 [8]: > 10 µM

OC[C@@H]1COCCN1C(=S)SSC(=S)N1CCOC[C@H]1CO
IC50 [8]: 2.44 µM | Ki [8]: 4.03 µM | Ratio [20]: 0.54 ×10³ /M/s | Kinact [21]: 3.24 ×10⁻⁴ /s

CCOC[C@@H]1COCCN1C(=S)SSC(=S)N1CCOC[C@H]1COCC
inhibition [1]: Active | inhibition [4]: Active | inhibition [7]: Active | IC50 [8]: 0.072 µM | inhibition [19]: Active

O=C(O)C(Cl)Cl [DICHLOROACETIC ACID]
IC50 [6]: 13800 µM | IC50 [11]: 504 µM | IC50 [13]: 11100 µM | inhibition [15]: Active | IC50 [17]: > 15000 µM | IC50 [18]: 5560 µM | IC50 [22]: 727 µM

Cc1ccc(OCC2CN(C(=S)SSC(=S)N3CCOC(COc4ccc(C)cc4)C3)CCO2)cc1 (configuration not stated)
IC50 [8]: 2.41 µM

OCCOCC1CN(C(=S)SSC(=S)N2CCCOC(COCCO)C2)CCCO1 (configuration not stated)
IC50 [8]: 6.83 µM

CN(C)C(=O)OCC1CN(C(=S)SSC(=S)N2CCCOC(COC(=O)N(C)C)C2)CCCO1 (configuration not stated)
IC50 [8]: 1.46 µM

S=C(SSC(=S)N1CCCOC(COc2ccccc2)C1)N1CCCOC(COc2ccccc2)C1 (configuration not stated)
IC50 [8]: 0.609 µM

COCC1CN(C(=S)SSC(=S)N2CCOC(COC)C2)CCO1 (configuration not stated)
inhibition [1]: Active | inhibition [4]: Active | inhibition [7]: Active | IC50 [8]: 0.09 µM | inhibition [19]: Active

COC[C@H]1COCCN1C(=S)SSC(=S)N1CCOC[C@@H]1COC
IC50 [8]: 0.03 µM | Ki [8]: 0.12 µM

C1CCc2nc(SSc3nc4c(s3)CCCCC4)sc2CC1
IC50 [8]: 0.039 µM | Ki [8]: 1.8 µM | Ratio [20]: 3.93 ×10³ /M/s | Kinact [21]: 69.9 ×10⁻⁴ /s

c1cnc2sc(SSc3nc4cccnc4s3)nc2c1
IC50 [8]: 0.476 µM

CCOC(=O)C1CCc2nc(SSc3nc4c(s3)CC(C(=O)OCC)CC4)sc2C1 (configuration not stated)
IC50 [8]: 0.109 µM

C[C@@H]1CN(C(=S)SSC(=S)N2C[C@@H](C)O[C@@H](C)C2)C[C@H](C)O1
inhibition [1]: Active | inhibition [4]: Active | inhibition [7]: Active | IC50 [8]: 0.032 µM | inhibition [19]: Active

CCOC(=O)C1CCc2nc(S)sc2C1 (configuration not stated)
inhibition [23]: inactive

OCC1CN(C(=S)SSC(=S)N2CCOC(CO)C2)CCO1 (configuration not stated)
inhibition [1]: Active | inhibition [4]: inactive | inhibition [7]: inactive | IC50 [8]: 0.702 µM | inhibition [19]: Active
